Results taken from patent US9963433B2, “Anticancer drugs including the chemical structures of an androgen receptor ligand and a histone deacetylase inhibitor” (Wayne State University, priority 2016, dated 2018).

Key:
[1] = tested on: HDACs from Hela cell nuclear extract; format: biochemical; conditions: HeLa cell nuclear extract; tested at 10 μM and 25 μM; FIG. 2B
Procedure: (§1) FIGS. 2A-2F show measurement of intrinsic and in situ HDACi activities. […] IC50 values were calculated from nonlinear regression plots using GraphPad Prism5 software. […] Recombinant HDAC6 was incubated with each drug at the indicated concentrations. IC50 values were calculated from nonlinear regression plots using GraphPad Prism5 software.
(§2) HDAC activity assay. In vitro HDAC inhibition was measured by using the HDAC fluorimetric assay/drug discovery Kit (Enzo Life Sciences, BML-AK500) and the HDAC6 fluorometric drug discovery kit (Enzo Life Sciences, BML-AK516) following the manufacturer's protocols and instructions. IC50 values were calculated from nonlinear […] plots using GraphPad Prism5 software.
(§3) HDAC1 and HDAC2 are enriched in nuclear extracts whereas HDAC6 is a cytosolic enzyme that is the principal modulator of the acetylation status of Hsp90. […] Again, TSA served as the positive control in FIG. 2D.

human recombinant HDAC6 = target: T1, human recombinant HDAC6 (Homo sapiens, UniProt Q9UBN7); assay: HDAC6 fluorometric assay, recombinant enzyme; format: biochemical; conditions: tested at 10 μM and 25 μM; FIG. 2D
T1 construct: purchased Enzo Life Sciences BML-AK516
T1 sequence (Q9UBN7 1-1215): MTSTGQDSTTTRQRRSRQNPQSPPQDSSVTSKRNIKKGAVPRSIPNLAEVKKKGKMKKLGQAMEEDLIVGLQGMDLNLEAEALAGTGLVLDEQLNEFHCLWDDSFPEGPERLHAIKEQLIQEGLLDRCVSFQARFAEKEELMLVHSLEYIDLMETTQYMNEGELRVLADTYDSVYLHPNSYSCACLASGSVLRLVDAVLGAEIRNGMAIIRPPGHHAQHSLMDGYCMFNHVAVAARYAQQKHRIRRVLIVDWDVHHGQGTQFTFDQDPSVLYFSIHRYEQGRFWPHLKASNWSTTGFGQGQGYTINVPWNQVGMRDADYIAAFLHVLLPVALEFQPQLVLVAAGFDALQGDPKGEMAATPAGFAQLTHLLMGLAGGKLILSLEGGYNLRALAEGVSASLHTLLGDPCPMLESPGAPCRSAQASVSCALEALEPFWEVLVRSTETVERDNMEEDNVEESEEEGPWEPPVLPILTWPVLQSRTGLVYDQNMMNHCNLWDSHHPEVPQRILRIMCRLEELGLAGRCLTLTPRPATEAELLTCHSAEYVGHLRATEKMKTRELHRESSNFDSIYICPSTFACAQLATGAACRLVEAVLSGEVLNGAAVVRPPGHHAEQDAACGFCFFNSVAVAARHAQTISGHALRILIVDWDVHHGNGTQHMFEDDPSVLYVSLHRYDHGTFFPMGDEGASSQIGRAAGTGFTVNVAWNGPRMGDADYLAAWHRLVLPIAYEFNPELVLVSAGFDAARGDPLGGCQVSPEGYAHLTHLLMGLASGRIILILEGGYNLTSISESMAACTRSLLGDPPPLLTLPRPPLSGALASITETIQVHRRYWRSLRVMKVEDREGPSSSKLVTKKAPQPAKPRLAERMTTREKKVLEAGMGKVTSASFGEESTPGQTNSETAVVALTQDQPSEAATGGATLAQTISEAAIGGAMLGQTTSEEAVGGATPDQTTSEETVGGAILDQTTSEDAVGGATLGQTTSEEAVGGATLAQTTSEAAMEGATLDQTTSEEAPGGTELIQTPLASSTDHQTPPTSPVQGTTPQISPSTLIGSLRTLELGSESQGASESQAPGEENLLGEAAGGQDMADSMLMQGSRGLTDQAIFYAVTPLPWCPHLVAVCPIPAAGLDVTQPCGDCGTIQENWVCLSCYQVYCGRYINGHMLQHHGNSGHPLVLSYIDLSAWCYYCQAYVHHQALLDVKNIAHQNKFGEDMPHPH
Procedure: as §1, §2, §3

C4-2 cells = assay: MTT cell viability assay, C4-2 cells; format: cell-based; conditions: MTT, Day 3; up to 10 μM; FIG. 6A
Procedure: (§4) (6A) C4-2 cells were seeded in 96-well plates and 24 h later, they were treated with the indicated compounds (0.1 μM-10 μM) or with vehicle (DMSO). Cell viability was measured by the MTT assay on Days 0 and 3 of treatment. EC50 values were calculated from nonlinear regression plots using GraphPad Prism5 software. […] Cell viability was measured by the MTT assay on Days 0 and 3 of treatment. […] Cell viability was measured by the MTT assay on Days 0 and 3 of treatment. […] (6D) 22Rv1 cells were infected with AR shRNA lentivirus, or control shRNA. 72 h after infection, cells were plated and viable cells were measured by the MTT assay on the indicated days (6D, bottom). Cells were also harvested for western blot analysis and probed with antibody to AR, which was also reactive with the AR splice variant AR-V7 (6D, top). (6E) 22Rv1 cells were seeded in 96-well plates and 24 h later, they were treated with the indicated compounds (0.1 μM-10 μM) or with vehicle (DMSO). Cell viability was measured by the MTT assay on Days 0 and 3 of treatment. EC50 values were calculated from nonlinear regression plots using GraphPad Prism5 software.
(§5) Cell Proliferation Assay. Cells were trypsinized and 6000 cells/well were seeded in 96-well plates coated with poly-D-lysine. The cells were seeded in phenol red-free medium supplemented with 10% FBS, 100 units/ml penicillin, 100 μg/ml streptomycin, 2 mM L-glutamine mixture and sodium pyruvate (1 mM) for C4-2 cells and phenol red-free medium supplemented with 10% FBS, 100 units/ml penicillin, 100 μg/ml streptomycin and 2 mM L-glutamine mixture for 22Rv1 cells. The cells were grown at 37° C. in 5% CO2. Twenty four hours after seeding in the 96-well plates, the cells were treated with indicated compound or DMSO (vehicle). The culture medium was not changed during the time course of the assay. On Day zero and on Day 3, cell viability was determined using the MTT assay. MTT (10 μL, 5 mg/mL) was added to each well and incubated for 2 h at 37° C. The formazan crystal sediments were dissolved in 100 μL of DMSO, and the absorbance at 570 nm was measured using the BioTek Synergy 2 Microplate Reader (BioTek, Winooski, Vt.). […] IC50 values were calculated from nonlinear […] plots using GraphPad Prism5 software.

22Rv1 cells = assay: MTT cell viability assay, 22Rv1 cells; format: cell-based; conditions: Day 3, 0.1 μM-10 μM, FIG. 6E
Procedure: as §4, §5

With `CCOC(=O)/C=C/c1ccc(N2C(=S)N(c3ccc(C#N)c(C(F)(F)F)c3)C(=O)C2(C)C)cc1F` [Compound 1002, (E)-ethyl-3-(4-(3-(4-cyano-3-(trifluoromethyl)phenyl)-5,5-dimethyl-4-oxo-2-thioxoimidazolidin-1-yl)-2-fluorophenyl)acrylate] the “inhibition of nuclear HDAC activity” value [1] was “did not inhibit nuclear HDAC activity even up to a concentration of 25 μM”, the “inhibitory activity against HDAC6” value (human recombinant HDAC6) was “did not show significant inhibitory activity” and the “effect on C4-2 cell growth” value (C4-2 cells) was “unable to appreciably inhibit C4-2 cell growth”. The “effect on growth of 22Rv1 cells” value (22Rv1 cells) was “modest effect at high concentrations”.
